Laboratory results taken from US20240246946A1, “MODULATORS OF TREX1” (Constellation Pharmaceuticals, Inc., priority 2021, published 2024).

What was measured:
[1] = target: T1, full length mouse TREX1 (Mus musculus, UniProt Q91XB0); assay: mTREX1 Biochemical Assay (fluorescence, dsDNA substrate degradation); settings: biochemical, read-out: mTREX1 IC50
T1 construct: N-terminally His-Tev tagged full length mouse TREX1; made in house; host or cells: E. coli
T1 sequence (Q91XB0 1-314): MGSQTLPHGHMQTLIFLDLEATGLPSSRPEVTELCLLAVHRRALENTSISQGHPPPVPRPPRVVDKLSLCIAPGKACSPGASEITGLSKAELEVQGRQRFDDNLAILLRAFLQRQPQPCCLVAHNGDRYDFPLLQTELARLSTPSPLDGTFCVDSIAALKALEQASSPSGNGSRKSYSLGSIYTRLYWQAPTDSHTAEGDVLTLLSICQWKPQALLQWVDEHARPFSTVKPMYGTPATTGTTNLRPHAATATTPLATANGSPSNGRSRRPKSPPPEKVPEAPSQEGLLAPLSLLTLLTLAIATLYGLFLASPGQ
Procedure, shortened: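 Reaction run 18 h at 25° C. with 60 nM TEX615/quencher-labelled dsDNA and 6 pM mouse TREX1 in Tris buffer (pH 7.4, 5 mM MgCl2, 1.0% DMSO), enzyme having sat 4 h with compound across 10 concentrations. EDTA quench; substrate degradation measured as fluorescence increase.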

[2] = target: T2, human TREX2 (residues M44-A279) (Homo sapiens, UniProt Q9BQ50); assay: hTREX2 Biochemical Assay (fluorescence, dsDNA substrate degradation); settings: biochemical selectivity for hTREX1 vs hTREX2
T2 construct: human TREX2 (residues M44-A279, expressed in E. coli); made in house; host or cells: E. coli
T2 sequence (Q9BQ50 44-279 isoform Q9BQ50-1): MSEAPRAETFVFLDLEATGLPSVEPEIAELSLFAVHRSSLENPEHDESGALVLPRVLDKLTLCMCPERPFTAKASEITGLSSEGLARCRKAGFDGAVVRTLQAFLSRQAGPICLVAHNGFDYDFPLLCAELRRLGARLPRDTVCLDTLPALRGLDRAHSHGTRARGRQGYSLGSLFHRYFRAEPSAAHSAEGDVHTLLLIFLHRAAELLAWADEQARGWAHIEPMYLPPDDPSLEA
Procedure, shortened: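 N-His-Tev E. coli enzyme (50 pM) pre-incubated with compound 4 h at 25 °C, then 60 nM TEX615/quencher dsDNA added; 18 h at 25 °C, pH 7.4 Tris buffer with 5 mM MgCl2, 1.0% DMSO. EDTA-quenched; fluorescence 570 ex/615 em from liberated fluorophore, 10-point dose-response.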

[3] = target: T3, full length human TREX1 (Homo sapiens, UniProt Q9NSU2); assay: hTREX1 Biochemical Assay (fluorescence, dsDNA substrate degradation); settings: biochemical, read-out: hTREX1 IC50
T3 construct: N-terminally His-Tev tagged full length human TREX1; made in house; host or cells: E. coli
T3 sequence (Q9NSU2 1-314): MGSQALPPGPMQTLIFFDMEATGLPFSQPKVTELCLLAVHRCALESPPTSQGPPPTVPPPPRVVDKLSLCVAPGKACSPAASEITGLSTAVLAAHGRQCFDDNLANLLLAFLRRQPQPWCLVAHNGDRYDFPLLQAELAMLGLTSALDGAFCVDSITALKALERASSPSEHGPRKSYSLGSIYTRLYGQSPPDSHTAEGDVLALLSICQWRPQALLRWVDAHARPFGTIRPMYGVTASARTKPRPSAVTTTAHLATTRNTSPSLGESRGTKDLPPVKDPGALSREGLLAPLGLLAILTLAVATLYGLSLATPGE
Procedure, shortened: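 Cleavage of 60 nM TEX615/quencher-labelled dsDNA in pH 7.4 Tris buffer with 5 mM MgCl2, 1.0% DMSO, run 18 hours at 25° C, EDTA-quenched; fluorescence read-out.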

Structure (SMILES)	IC50 [1] [nM]	hTREX1 vs hTREX2 selectivity [2]	IC50 [3] [nM]
Cc1cnc(C)c(C(c2cc(F)ccc2Cl)C(C)c2nc(C(=O)Nc3cnoc3)c(O)c(=O)n2C)n1 (single isomer, unassigned) [Example 121 D1E2]	> 10	A (A = <25 fold selective for hTREX1)	> 10
Cc1nc(C)c(C(c2ccccc2C#N)C(C)c2nc(C(=O)Nc3cnoc3)c(O)c(=O)n2C)nc1C (single isomer, unassigned) [Example 122 D1E2]	> 10	B (B = 25 to 50-fold selective for hTREX1)	> 10
Cc1cnc(C(c2ccccc2C#N)C(C)c2nc(C(=O)Nc3cnoc3)c(O)c(=O)n2C)c(C)n1 (single isomer, unassigned) [Example 123 D1E2]	> 10	A (A = <25 fold selective for hTREX1)	> 10
Cc1cnc(C(c2ccccc2C#N)C(C)c2nc(C(=O)Nc3cnoc3)c(O)c(=O)n2C)c(C)n1 (single isomer, unassigned) [Example 123 D2E1]	> 10	C (C = >50 fold selective for hTREX1)	1 to 10
Cc1cnc(C(c2ccccc2C#N)C(C)c2nc(C(=O)Nc3cnoc3)c(O)c(=O)n2C)c(C)n1 (single isomer, unassigned) [Example 123 D2E2]	> 10	A (A = <25 fold selective for hTREX1)	> 10
Cc1ncc(C(c2cc(F)ccc2C#N)C(C)c2nc(C(=O)Nc3cnoc3)c(O)c(=O)n2C)nc1C (single isomer, unassigned) [Example 124 D1E1]	> 10	A (A = <25 fold selective for hTREX1)	> 10
Cc1ncc(C(c2cc(F)ccc2C#N)C(C)c2nc(C(=O)Nc3cnoc3)c(O)c(=O)n2C)nc1C (single isomer, unassigned) [Example 124 D2E1]	> 10	A (A = <25 fold selective for hTREX1)	> 10
Cc1ncc(C(c2cc(F)ccc2C#N)C(C)c2nc(C(=O)Nc3cnoc3)c(O)c(=O)n2C)nc1C (single isomer, unassigned) [Example 124 D2E2]	> 10	A (A = <25 fold selective for hTREX1)	> 10
Cc1ncc(C(c2ccccc2Cl)C(C)c2nc(C(=O)Nc3cnoc3)c(O)c(=O)n2C)nc1C (single isomer, unassigned) [Example 125 D1E1]	> 10	A (A = <25 fold selective for hTREX1)	> 10
CC(c1nc(C(=O)Nc2cnoc2)c(O)c(=O)n1C)C(c1ccccc1Cl)c1cn(C)nc1F (single isomer, unassigned) [Example 130 D1E2]	> 10	A (A = <25 fold selective for hTREX1)	> 10
CC(c1nc(C(=O)Nc2cnoc2)c(O)c(=O)n1C)C(c1ccccc1C#N)c1nnnn1C (single isomer, unassigned) [Example 131 D1E1]	> 10	A (A = <25 fold selective for hTREX1)	> 10
CC(c1nc(C(=O)Nc2cnoc2)c(O)c(=O)n1C)C(c1ccccc1C#N)c1nnnn1C (single isomer, unassigned) [Example 131 D2E1]	> 10	C (C = >50 fold selective for hTREX1)	> 10
Cc1ccn(C(c2ccccc2C#N)C(C)c2nc(C(=O)Nc3cnoc3)c(O)c(=O)n2C)n1 (single isomer, unassigned) [Example 132 D1E1]	> 10	A (A = <25 fold selective for hTREX1)	> 10
Cc1cnn(C(c2ccccc2Cl)C(C)c2nc(C(=O)Nc3cnoc3)c(O)c(=O)n2C)c1 (single isomer, unassigned) [Example 133 D1E1]	> 10	A (A = <25 fold selective for hTREX1)	> 10
CCc1cnn(C(c2ccccc2Cl)C(C)c2nc(C(=O)Nc3cnoc3)c(O)c(=O)n2C)c1 (single isomer, unassigned) [Example 134 D1E2]	> 10	A (A = <25 fold selective for hTREX1)	> 10
CC(C)c1cnn(C(c2ccccc2Cl)C(C)c2nc(C(=O)Nc3cnoc3)c(O)c(=O)n2C)c1 (single isomer, unassigned) [Example 135 D1E2]	> 10	A (A = <25 fold selective for hTREX1)	> 10
Cc1cc(C)n(C(c2ccccc2Cl)C(C)c2nc(C(=O)Nc3cnoc3)c(O)c(=O)n2C)n1 (single isomer, unassigned) [Example 136 D1E1]	> 10	A (A = <25 fold selective for hTREX1)	> 10
Cc1cc(C)n(C(c2ccccc2C#N)C(C)c2nc(C(=O)Nc3cnoc3)c(O)c(=O)n2C)n1 (single isomer, unassigned) [Example 137 D1E2]	> 10	A (A = <25 fold selective for hTREX1)	> 10
Cc1ccnn1C(c1ccccc1C#N)C(C)c1nc(C(=O)Nc2cnoc2)c(O)c(=O)n1C (single isomer, unassigned) [Example 138 D1E2]	> 10	A (A = <25 fold selective for hTREX1)	> 10
CC(c1nc(C(=O)Nc2cnoc2)c(O)c(=O)n1C)C(c1ccccc1Cl)n1cc(C(F)(F)F)cn1 (single isomer, unassigned) [Example 139 D1E2]	> 10	A (A = <25 fold selective for hTREX1)	> 10
CC(c1nc(C(=O)Nc2cnoc2)c(O)c(=O)n1C)C(c1ccccc1Cl)n1nccc1C#N (single isomer, unassigned) [Example 140 D1E2]	> 10	A (A = <25 fold selective for hTREX1)	> 10
CC(c1nc(C(=O)Nc2cnoc2)c(O)c(=O)n1C)C(c1ccccc1Cl)n1cc2ccccc2n1 (single isomer, unassigned) [Example 141 D1E2]	> 10	A (A = <25 fold selective for hTREX1)	> 10
Cc1cn(C(c2ccccc2Cl)C(C)c2nc(C(=O)Nc3cnoc3)c(O)c(=O)n2C)cn1 (single isomer, unassigned) [Example 142 D1E1]	> 10	A (A = <25 fold selective for hTREX1)	> 10
CC(c1nc(C(=O)Nc2cnoc2)c(O)c(=O)n1C)C(c1ccccc1Cl)n1cnc2ccccc21 (single isomer, unassigned) [Example 143 D1E2]	> 10	A (A = <25 fold selective for hTREX1)	> 10
Cc1cnn(C(c2cc(F)ccc2Cl)C(C)c2nc(C(=O)Nc3cnoc3)c(O)c(=O)n2C)c1 (single isomer, unassigned) [Example 144 D1E1]	> 10	A (A = <25 fold selective for hTREX1)	> 10
Cc1ccnn1C(c1cc(F)ccc1Cl)C(C)c1nc(C(=O)Nc2cnoc2)c(O)c(=O)n1C (single isomer, unassigned) [Example 145 D1E2]	> 10	A (A = <25 fold selective for hTREX1)	> 10
Cc1ccn(C(c2cc(F)ccc2Cl)C(C)c2nc(C(=O)Nc3cnoc3)c(O)c(=O)n2C)n1 (single isomer, unassigned) [Example 146 D1E2]	> 10	A (A = <25 fold selective for hTREX1)	> 10
CC(c1nc(C(=O)Nc2cnoc2)c(O)c(=O)n1C)C(c1ccccc1Cl)n1nccc1C(N)=O (single isomer, unassigned) [Example 147 D1E2]	> 10	A (A = <25 fold selective for hTREX1)	> 10
